# Assay results published in paper PMC3626541, “A first in human, safety, pharmacokinetics, and clinical activity phase I study of once weekly administration of the Hsp90 inhibitor ganetespib (STA-9090) in patients with solid malignancies” (BMC Cancer, 2013).
# Tested on: patients with advanced solid tumors
# Assay: Safety: adverse events (NCI CTCAE v3.0), ECG
# Type: in vivo, human
# Method: Patients’ demographics and medical history were recorded at baseline. Physical examination and PS were assessed at baseline and on Day 1 of each cycle. Adverse events (AEs), vital signs, hematology and chemistry values, and creatinine clearance were assessed at baseline and weekly during treatment. Toxicity was graded using National Cancer Institute Common Terminology Criteria for Adverse Events (NCI CTCAE), version 3.0. An electrocardiogram (ECG) was performed at baseline, before and after treatment on Days 1 and 15 of Cycles 1 and 2, and on Day 15 of even-numbered cycles thereafter. CT scans were done at baseline and every 8 weeks thereafter. Tumor response was assessed using Response Evaluation Criteria in Solid Tumors (RECIST, v1.0), with confirmation of responses performed at least 4 weeks later.
smiles,measurement,setting,value
"CC(C)c1cc(-c2n[nH]c(=O)n2-c2ccc3c(ccn3C)c2)c(O)cc1O [Ganetespib, 5-[2,4-dihydroxy-5-(1 methyl-ethyl)phenyl]-2,4 dihydro-4-(1-methyl-1H indol-5 yl)-3H-1,2,4 triazole-3-one]","Any event, AE of any grade, Number (%) of patients","7-114 mg/m^2, n = 25",25 (100) n (%)
same,"Any event, CTCAE Grade 3 and 4 AE, Number (%) of patients","7-114 mg/m^2, n = 25",17 (68) n (%)
same,"Any event, serious adverse events, Number (%) of patients","7-114 mg/m^2, n = 25",6 (24) n (%)
same,"Arthralgia, CTCAE Grade 3 and 4 AE, Number (%) of patients","7-114 mg/m^2, n = 25",1 (4) n (%)
same,"Asthenia, AE of any grade, Number (%) of patients","7-114 mg/m^2, n = 25",2 (8) n (%)
same,"Asthenia, CTCAE Grade 3 and 4 AE, Number (%) of patients","7-114 mg/m^2, n = 25",1 (4) n (%)
same,"Asthenia, serious adverse events, Number (%) of patients","7-114 mg/m^2, n = 25",0 n (%)
same,"Back pain, AE of any grade, Number (%) of patients","7-114 mg/m^2, n = 25",4 (16) n (%)
same,"Constipation, AE of any grade, Number (%) of patients","7-114 mg/m^2, n = 25",5 (20) n (%)
same,"Decreased appetite, AE of any grade, Number (%) of patients","7-114 mg/m^2, n = 25",2 (8) n (%)
same,"Dehydration, AE of any grade, Number (%) of patients","7-114 mg/m^2, n = 25",1 (4) n (%)
same,"Dehydration, CTCAE Grade 3 and 4 AE, Number (%) of patients","7-114 mg/m^2, n = 25",1 (4) n (%)
same,"Dehydration, serious adverse events, Number (%) of patients","7-114 mg/m^2, n = 25",0 n (%)
same,"Diarrhea, CTCAE Grade 3 and 4 AE, Number (%) of patients","7-114 mg/m^2, n = 25",1 (4) n (%)
same,"Dizziness, AE of any grade, Number (%) of patients","7-114 mg/m^2, n = 25",1 (4) n (%)
same,"Dry mouth, AE of any grade, Number (%) of patients","7-114 mg/m^2, n = 25",2 (8) n (%)
same,"Dyspnea, AE of any grade, Number (%) of patients","7-114 mg/m^2, n = 25",4 (16) n (%)
same,"Extremity pain, AE of any grade, Number (%) of patients","7-114 mg/m^2, n = 25",4 (16) n (%)
same,"Fatigue, AE of any grade, Number (%) of patients","7-114 mg/m^2, n = 25",12 (48) n (%)
same,"Fatigue, CTCAE Grade 3 and 4 AE, Number (%) of patients","7-114 mg/m^2, n = 25",1 (4) n (%)
same,"Headache, AE of any grade, Number (%) of patients","7-114 mg/m^2, n = 25",2 (8) n (%)
same,"Hyperbilirubinemia, CTCAE Grade 3 and 4 AE, Number (%) of patients","7-114 mg/m^2, n = 25",1 (4) n (%)
same,"Hypokalemia, AE of any grade, Number (%) of patients","7-114 mg/m^2, n = 25",2 (8) n (%)
same,"Hypokalemia, CTCAE Grade 3 and 4 AE, Number (%) of patients","7-114 mg/m^2, n = 25",0 n (%)
same,"Hyponatremia, CTCAE Grade 3 and 4 AE, Number (%) of patients","7-114 mg/m^2, n = 25",3 (12) n (%)
same,"Hypophosphatemia, AE of any grade, Number (%) of patients","7-114 mg/m^2, n = 25",5 (20) n (%)
same,"Hypophosphatemia, CTCAE Grade 3 and 4 AE, Number (%) of patients","7-114 mg/m^2, n = 25",2 (8) n (%)
same,"Insomnia, AE of any grade, Number (%) of patients","7-114 mg/m^2, n = 25",2 (8) n (%)
same,"Musculoskeletal chest pain, AE of any grade, Number (%) of patients","7-114 mg/m^2, n = 25",2 (8) n (%)
same,"Nausea, AE of any grade, Number (%) of patients","7-114 mg/m^2, n = 25",7 (28) n (%)
same,"Peripheral edema, AE of any grade, Number (%) of patients","7-114 mg/m^2, n = 25",3 (12) n (%)
same,"Pneumonia, serious adverse events, Number (%) of patients","7-114 mg/m^2, n = 25",0 n (%)
same,"Rash, AE of any grade, Number (%) of patients","7-114 mg/m^2, n = 25",4 (16) n (%)
same,"Serum amylase elevated, CTCAE Grade 3 and 4 AE, Number (%) of patients","7-114 mg/m^2, n = 25",1 (4) n (%)
same,"Spinal cord compression, CTCAE Grade 3 and 4 AE, Number (%) of patients","7-114 mg/m^2, n = 25",2 (8) n (%)
same,"Urinary tract infection, AE of any grade, Number (%) of patients","7-114 mg/m^2, n = 25",2 (8) n (%)
same,"Vomiting, AE of any grade, Number (%) of patients","7-114 mg/m^2, n = 25",4 (16) n (%)
same,"Weight decreased, AE of any grade, Number (%) of patients","7-114 mg/m^2, n = 25",1 (4) n (%)
same,"ALT elevated, AE of any grade, Number (%) of patients","7-114 mg/m^2, n = 25, first of two ALT elevated lines",5 (20) n (%)
same,"ALT elevated, AE of any grade, Number (%) of patients","7-114 mg/m^2, n = 25, second of two ALT elevated lines",3 (12) n (%)
same,Incidence of diarrhea,7–114 mg/m^2 dose levels,80%
same,Incidence of fatigue,7–114 mg/m^2 dose levels,48%
same,"ALT elevation, CTCAE Grade 3 and 4 AE, Number (%) of patients","150-216 mg/m^2, n = 22",1 (4.5) n (%)
same,"AST elevated, AE of any grade, Number (%) of patients","150-216 mg/m^2, n = 22",4 (18.2) n (%)
same,"Abdominal distension, AE of any grade, Number (%) of patients","150-216 mg/m^2, n = 22",3 (13.6) n (%)
same,"Abdominal pain, AE of any grade, Number (%) of patients","150-216 mg/m^2, n = 22",10 (45.5) n (%)
same,"Abdominal pain, serious adverse events, Number (%) of patients","150-216 mg/m^2, n = 22",1 (4.5) n (%)
same,"Anemia, AE of any grade, Number (%) of patients","150-216 mg/m^2, n = 22",5 (22.7) n (%)
same,"Any event, AE of any grade, Number (%) of patients","150-216 mg/m^2, n = 22",22 (100) n (%)
same,"Any event, CTCAE Grade 3 and 4 AE, Number (%) of patients","150-216 mg/m^2, n = 22",14 (63.6) n (%)
same,"Any event, serious adverse events, Number (%) of patients","150-216 mg/m^2, n = 22",6 (27.3) n (%)
same,"Arthralgia, CTCAE Grade 3 and 4 AE, Number (%) of patients","150-216 mg/m^2, n = 22",0 n (%)
same,"Asthenia, AE of any grade, Number (%) of patients","150-216 mg/m^2, n = 22",4 (18.2) n (%)
same,"Asthenia, CTCAE Grade 3 and 4 AE, Number (%) of patients","150-216 mg/m^2, n = 22",1 (4.5) n (%)
same,"Asthenia, serious adverse events, Number (%) of patients","150-216 mg/m^2, n = 22",1 (4.5) n (%)
same,"Back pain, AE of any grade, Number (%) of patients","150-216 mg/m^2, n = 22",2 (9.1) n (%)
